How the values were obtained:
[1] = test system: U937 cells; assay: Cellular assay in U937 cells: activity of RIPK1 inhibitors on TNFα/zVAD.fmk-induced cell death (necroptosis), CellTiter 96 AQueous (MTS) readout; assay type: cell-based; settings: Homo sapiens, U-937
How it was run: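 Necroptosis was measured by viable-cell MTS reduction (4 h, absorbance 490 nm) after overnight (18–24 h) 37° C culture. Cell suspensions of U937 cells carried TNFα (100 ng/ml) plus zVAD.fmk (50 μM) before compound was added. A 10-point curve (10 μM–0.26 nM or 1 μM–0.07 nM) was run in duplicate, normalised to the control lacking TNFα/zVAD.fmk.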

[2] = molecular target: T1, hRIPK1 (aa 1-375) fusion protein (Homo sapiens, UniProt Q13546); assay: ADP-Glo kinase assay: catalytic activity of RIPK1 (autophosphorylation, conversion of ATP to ADP); assay type: biochemical
T1 construct: hRIPK1 (aa 1-375) fusion protein
T1 sequence (Q13546 1-375): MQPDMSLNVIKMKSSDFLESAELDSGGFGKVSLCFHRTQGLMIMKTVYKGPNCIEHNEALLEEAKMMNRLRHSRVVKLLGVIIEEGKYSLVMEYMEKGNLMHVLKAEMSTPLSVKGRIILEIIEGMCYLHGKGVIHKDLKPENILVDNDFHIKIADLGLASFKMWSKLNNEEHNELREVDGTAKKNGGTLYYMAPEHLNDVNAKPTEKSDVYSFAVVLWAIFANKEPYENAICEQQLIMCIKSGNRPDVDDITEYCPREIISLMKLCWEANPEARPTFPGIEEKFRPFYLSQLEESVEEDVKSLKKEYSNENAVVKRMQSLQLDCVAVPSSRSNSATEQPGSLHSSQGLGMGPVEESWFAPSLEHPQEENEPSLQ
How it was run: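 hRIPK1 (aa 1-375) fusion protein (3.6 μg/ml final) was preincubated 30 min at rt with compound (33300-1.69 nM, 1% DMSO), then 50 μM ATP was added for 240 min at rt. ADP from autophosphorylation was measured by ADP-Glo luminescence and curves fitted by nonlinear regression.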

SMILES | IC50 [2] [nM] | IC50 [1] [nM]
N#Cc1cc(F)cc([C@@H]2CCON2C(=O)[C@H]2CC[C@H](Cc3ccc(F)c(C(N)=O)c3)CC2)c1 [compound 195, trans-5-[[4-[(3S)-3-(3-cyano-5-fluoro-phenyl)isoxazolidine-2-carbonyl]cyclohexyl]methyl]-2-fluoro-benzamide] | 12 | 6
Cc1ccc([C@@H]2CCON2C(=O)[C@H]2CC[C@H](Cc3ccc(C4(O)COC4)cc3)CC2)cn1 [compound 348, trans-5 [4-[[4-(3-hydroxyoxetan-3-yl)phenyl]methyl]cyclohexyl]-[(3S)-3-(6-methylpyridin-3-yl)-1,2-oxazolidin-2-yl]methanone] | 37 | 105
N#Cc1cc(F)cc([C@@H]2CCON2C(=O)[C@H]2CC[C@H](Cc3ccc(CO)c(F)c3)CC2)c1 [compound 266, trans-3-fluoro-5-[(3S)-2-[4-[[3-fluoro-4-(hydroxymethyl)phenyl]methyl]cyclohexanecarbonyl]isoxazolidin-3-yl]benzonitrile] | 13 | 1
CNC(=O)c1ccc(F)c(C[C@H]2CC[C@H](C(=O)N3OCC[C@H]3c3cc(F)cc(C#N)c3)CC2)c1 [compound 177, trans-3-[[4-[(3S)-3-(3-cyano-5-fluoro-phenyl)isoxazolidine-2-carbonyl]cyclohexyl]methyl]-4-fluoro-N-methyl-benzamide] | 11 | 5
N#Cc1cc2ncn(C[C@H]3CC[C@H](C(=O)N4OCC[C@H]4c4cc(F)cc(F)c4)CC3)c2cc1F [compound 10, trans-1-((4-((S)-3-(3,5-difluorophenyl)isoxazolidine-2-carbonyl)cyclohexyl)methyl)-6-fluoro-1H-benzo[d]imidazole-5-carbonitrile] | 43 | 8
Cc1cn2nc(C[C@H]3CC[C@H](C(=O)N4OCC[C@H]4c4cc(F)cc(F)c4)CC3)c(C)cc2n1 [compound 293, trans-[(3S)-3-(3,5-difluorophenyl)isoxazolidin-2-yl]-[4-[(2,7-dimethylimidazo[1,2-b]pyridazin-6-yl)methyl]cyclohexyl]methanone] | 14 | 3
Cc1cc(C)n(C[C@H]2CC[C@H](C(=O)N3OCC[C@H]3c3cc(F)cc(F)c3)CC2)n1 [compound 118, trans-((S)-3-(3,5-difluorophenyl)isoxazolidin-2-yl)(4-((3,5-dimethyl-1H-pyrazol-1-yl)methyl)cyclohexyl)methanone] | 23 | 30
NC(=O)c1cc(F)c2ncn(C[C@H]3CC[C@H](C(=O)N4OCC[C@H]4c4cc(F)cc(F)c4)CC3)c2c1 [compound 81, trans-1-((4-((S)-3-(3,5-difluorophenyl)isoxazolidine-2-carbonyl)cyclohexyl)methyl)-4-fluoro-1H-benzo[d]imidazole-6-carboxamide] | 33 | 166
N#Cc1cc(C[C@H]2CC[C@H](C(=O)N3OCC[C@H]3c3ccc(F)cc3)CC2)ccc1F [compound 242, trans-2-fluoro-5-[[4-[(3S)-3-(4-fluorophenyl)isoxazolidine-2-carbonyl]cyclohexyl]methyl]benzonitrile] | 21 | 16
Cc1ccc(CC23CCC(C(=O)N4OCC[C@H]4c4cc(F)cc(C#N)c4)(CC2)CC3)cc1C(N)=O [compound 274, 5-[[4-[(3S)-3-(3-cyano-5-fluoro-phenyl)isoxazolidine-2-carbonyl]-1-bicyclo[2.2.2]octanyl]methyl]-2-methyl-benzamide] | 9 | 40
Cc1c(C#N)ncn1C[C@H]1CC[C@H](C(=O)N2OCC[C@H]2c2cc(F)cc(F)c2)CC1 [compound 91, trans-1-((4-((S)-3-(3,5-difluorophenyl)isoxazolidine-2-carbonyl)cyclohexyl)methyl)-5-methyl-1H-imidazole-4-carbonitrile] | 39 | 67
N#Cc1cc(F)cc([C@@H]2CCON2C(=O)[C@H]2CC[C@H](Cn3ncc4cc(C#N)ccc43)CC2)c1 [compound 53, trans-1-((4-((S)-3-(3-cyano-5-fluorophenyl)isoxazolidine-2-carbonyl)cyclohexyl)methyl)-1H-indazole-5-carbonitrile] | 17 | 4
N#Cc1cc(F)cc([C@@H]2CCON2C(=O)[C@H]2CC[C@H](Cn3ccc4c(F)cc(C#N)cc43)CC2)c1 [compound 46, trans-1-((4-((S)-3-(3-cyano-5-fluorophenyl)isoxazolidine-2-carbonyl)cyclohexyl)methyl)-4-fluoro-1H-indole-6-carbonitrile] | 13 | 6

Second part, led by results:

IC50 [2] [nM] | SMILES | IC50 [1] [nM]
22 | Cc1ncc(F)cc1C[C@H]1CC[C@H](C(=O)N2OCC[C@H]2c2cc(F)cc(F)c2)CC1 [compound 182, trans-[(3S)-3-(3,5-difluorophenyl)isoxazolidin-2-yl]-[4-[(5-fluoro-2-methyl-3-pyridyl)methyl]cyclohexyl]methanone] | 1
16 | Cc1ncc(C#N)cc1C[C@H]1CC[C@H](C(=O)N2OCC[C@H]2c2cc(F)cc(F)c2)CC1 [compound 278, trans-5-[[4-[(3S)-3-(3,5-difluorophenyl)isoxazolidine-2-carbonyl]cyclohexyl]methyl]-6-methyl-pyridine-3-carbonitrile] | 3
19 | O=C1NCc2c(F)cc(C[C@H]3CC[C@H](C(=O)N4OCC[C@H]4c4cnccn4)CC3)cc21 [compound 213, trans-4-fluoro-6-[[4-[(3S)-3-pyrazin-2-ylisoxazolidine-2-carbonyl]cyclohexyl]methyl]isoindolin-1-one] | 16
31 | O=C([C@H]1CC[C@H](Cc2cc(F)c3ncnn3c2)CC1)N1OCC[C@H]1c1cnccn1 [compound 205, trans-[4-[(8-fluoro-[1,2,4]triazolo[1,5-a]pyridin-6-yl)methyl]cyclohexyl]-[(3S)-3-pyrazin-2-ylisoxazolidin-2-yl]methanone] | 112
150 | O=C([C@H]1CC[C@H](Cc2cnccn2)CC1)N1OCC[C@H]1c1cnccn1 [compound 246, trans-[(3S)-3-pyrazin-2-ylisoxazolidin-2-yl]-[4-(pyrazin-2-ylmethyl)cyclohexyl]methanone] | 918
47 | Cc1cnc([C@@H]2CCON2C(=O)[C@H]2CC[C@H](Cc3cc(C)c4nc(C)nn4c3)CC2)cn1 [compound 328, trans-[4-[(2,8-dimethyl-[1,2,4]triazolo[1,5-a]pyridin-6-yl)methyl]cyclohexyl]-[(3S)-3-(5-methylpyrazin-2-yl)isoxazolidin-2-yl]methanone; 2,2,2-trifluoroacetic] | 82
34 | Cc1cn2ncc(C[C@H]3CC[C@H](C(=O)N4OCC[C@H]4c4ccc(F)cc4)CC3)cc2n1 [compound 324, trans-[4-[(3S)-2-[4-[(2-methylimidazo[1,2-b]pyridazin-7-yl)methyl]cyclohexanecarbonyl]isoxazolidin-3-yl]phenyl]] | 35
76 | O=C([C@H]1CC[C@H](Cc2ccc3ncnn3c2)CC1)N1OCC[C@H]1c1cnccn1 [compound 143, trans-[(3S)-3-pyrazin-2-ylisoxazolidin-2-yl]-[4-([1,2,4]triazolo[1,5-a]pyridin-6-ylmethyl)cyclohexyl]methanone] | 44
